Measured values from US20120101099A1, “HISTONE DEACETYLASE INHIBITORS” (ANTHEM BIOSCIENCES PRIVATE LIMITED, priority 2009, published 2012).
Read-outs that look alike come from different tables or passages of the source.

What was measured:
Assay type in all cases: cell-based
HL-60 (AML) cells = experiment: Differentiation assay; conditions: Homo sapiens, 72 h; HL-60 cells, 3 days, H2 DCF-DA oxidation
Experimental: HL-60 (AML) cells were seeded (5×10^4 cells/well) into a 96 well plate and after 24 hrs cells were treated for 3 days with compounds in 8 different concentration (3000, 1000, 300, 100, 30, 10, 3, 1 nM) including control and 60 μM of H2 DCF-DA probe added to the cells. After 2 hours incubation oxidation of H2 DCF-DA was measured.

RPMI-8226 = experiment: Anti-proliferative activity (GI50); conditions: Homo sapiens, RPMI-8226; Table 9; Leukemia; read-out: Anti-proliferative activity (GI50) RPMI-8226
Experimental: (§1) Cells were seeded in a 96-well cell culture plates at a concentration of 10,000 cells per well and incubated at 37° C. in CO2 incubator.
(§2) Twenty-four hours later cells were treated with different concentrations (100, 10, 1, 0.1, and 0.01 μM) of compound dissolved in DMSO and incubated for 48 hours. For To measurement, 24 hours after seeding the cells, 20 μL of 3-(4.5-dimethyl-2- thiazolyl)-2,5-diphenyl-2H-tetrazolium (MTT) solution per well was added to the T0 plate and incubated for 3 hours at 37° C. in a CO2 incubator.
(§3) The plate containing cells and test compounds was treated similarly after 48 hours of incubation. After 3 hours of MTT addition, well contents were aspirated carefully followed by addition of 100 μL DMSO per well. Plates were agitated to ensure dissolution of the formazan crystals in DMSO and absorbance was read at 570 nm (A570). […] From the percentage growths a dose response curve was generated and GI50 values were interpolated from the growth curves.

U-87-MG = experiment: Anti-proliferative activity (GI50); conditions: Homo sapiens, Table 9, Brain, read-out: Anti-proliferative activity (GI50) U-87-MG
Experimental: as §1, §2, §3

Hela-S3 = experiment: Anti-proliferative activity (GI50); conditions: Homo sapiens, HeLa S3; Table 9; Cervix; read-out: Anti-proliferative activity (GI50) Hela-S3
Experimental: as §1, §2, §3

ACHN = experiment: Anti-proliferative activity (GI50); conditions: Homo sapiens, Table 9, Renal, read-out: Anti-proliferative activity (GI50) ACHN
Experimental: as §1, §2, §3

MCF-7 = experiment: Anti-proliferative activity (GI50); conditions: Homo sapiens, MCF7; Table 9; Breast; read-out: Anti-proliferative activity (GI50) MCF-7
Experimental: as §1, §2, §3

HCT-116 = experiment: Anti-proliferative activity (GI50); conditions: Homo sapiens, HCT-116; Table 9; Colon; read-out: Anti-proliferative activity (GI50) HCT-116
Experimental: as §1, §2, §3

Colo-205 = experiment: Anti-proliferative activity (GI50); conditions: Homo sapiens, COLO 205; Table 9; Colon; read-out: Anti-proliferative activity (GI50) Colo-205
Experimental: as §1, §2, §3

DU-145 = experiment: Anti-proliferative activity (GI50); conditions: Homo sapiens, DU-145; Table 9; Prostate; read-out: Anti-proliferative activity (GI50) DU-145
Experimental: as §1, §2, §3

SH-SY-5Y = experiment: Anti-proliferative activity (GI50); conditions: Homo sapiens, SH-SY5Y; Table 9; Brain; read-out: Anti-proliferative activity (GI50) SH-SY-5Y
Experimental: as §1, §2, §3

K562 = experiment: Anti-proliferative activity (GI50); conditions: Homo sapiens, K562; Table 9; Leukemia; read-out: Anti-proliferative activity (GI50) K562
Experimental: as §1, §2, §3

Calu-6 = experiment: Anti-proliferative activity (GI50); conditions: Homo sapiens, Calu-6; Table 9; Lung; read-out: Anti-proliferative activity (GI50) Calu-6
Experimental: as §1, §2, §3

A431 = experiment: Anti-proliferative activity (GI50); conditions: Homo sapiens, A-431; Table 9; Skin; read-out: Anti-proliferative activity (GI50) A431
Experimental: as §1, §2, §3

PANC-1 = experiment: Anti-proliferative activity (GI50); conditions: Homo sapiens, PANC-1; Table 9; Pancreas; read-out: Anti-proliferative activity (GI50) PANC-1
Experimental: as §1, §2, §3

KHOS = experiment: Anti-proliferative activity (GI50); conditions: Table 9; Bone; read-out: Anti-proliferative activity (GI50) KHOS
Experimental: as §1, §2, §3

Ca Ski = experiment: Anti-proliferative activity (GI50); conditions: Homo sapiens, Table 9, Cervix, read-out: Anti-proliferative activity (GI50) Ca Ski
Experimental: as §1, §2, §3

IMR-32 = experiment: Anti-proliferative activity (GI50); conditions: Homo sapiens, IMR-32; Table 9; Brain; read-out: Anti-proliferative activity (GI50) IMR-32
Experimental: as §1, §2, §3

HCT-15 = experiment: Anti-proliferative activity (GI50); conditions: Homo sapiens, HCT-15; Table 9; Colon; read-out: Anti-proliferative activity (GI50) HCT-15
Experimental: as §1, §2, §3

P21 = experiment: p21 induction in HeLa cells (Western Blot); parameters: key: represented by the symbol ‘+’ which indicates the relative extent of modulation; ++: represented by the symbol ‘+’ which indicates the relative extent of modulation; +++: represented by the symbol ‘+’ which indicates the relative extent of modulation; ++++: represented by the symbol ‘+’ which indicates the relative extent of modulation; conditions: 24 hrs, 0.03-3.0 μM
Experimental: HeLa Cells were seeded at a density of 0.5×10^6 Cells/well into 6 well plates and incubated for 24 hrs. Compounds were tested at 5 different concentrations (0.03, 0.1, 0.3, 1.0, 3.0 μM) including corresponding controls. After 24 hrs cells were lysed and the cellular extract was used for measuring P21 induction by Western Blot using monoclonal Anti-p21 clone CP74 antibody (Sigma).

PC-3 = experiment: Cell proliferation assay (MTT); conditions: Homo sapiens, PC-3
Experimental: as §1, §2, §3

HT-29 = experiment: Cell proliferation assay (MTT); conditions: Homo sapiens, HT-29
Experimental: as §1, §2, §3

A549 = experiment: Cell proliferation assay (MTT); conditions: Homo sapiens, A549
Experimental: as §1, §2, §3

[1] = Table 1, MTT, 48 hours, read-out: Cell growth inhibition (GI50 in μM) PC-3
[2] = Table 9, Prostate, read-out: Anti-proliferative activity (GI50) PC-3
[3] = Table 1, MTT, 48 hours, read-out: Cell growth inhibition (GI50 in μM) HT-29
[4] = Table 9, Colon, read-out: Anti-proliferative activity (GI50) HT-29
[5] = Table 1, MTT, 48 hours, read-out: Cell growth inhibition (GI50 in μM) A549
[6] = Table 9, Lung, read-out: Anti-proliferative activity (GI50) A549

GI50 (RPMI-8226) [nM] | GI50 (U-87-MG) [nM] | GI50 (Hela-S3) [nM] | GI50 (ACHN) [nM] | GI50 (MCF-7) [nM] | GI50 (HCT-116) [nM] | GI50 (Colo-205) [nM] | GI50 (DU-145) [nM] | GI50 (SH-SY-5Y) [nM] | GI50 (K562) [nM] | GI50 (Calu-6) [nM] | GI50 (A431) [nM] | GI50 (PANC-1) [nM] | GI50 (HCT-15) [nM] | GI50 (PC-3; [1]) [µM] | GI50 (PC-3; [2]) [µM] | SMILES | GI50 (KHOS) [nM] | GI50 (Ca Ski) [nM] | GI50 (IMR-32) [nM] | P21 induction (P21) | other results
500 ± 430 | 2700 ± 740 | 600 ± 160 | 700 ± 110 | 5700 ± 1620 | 1200 ± 18 | 300 ± 71 | 300 ± 124 | 200 ± 60 | 300 ± 74 | 1400 ± 310 | 1200 ± 533 | 6600 | 4100 ± 3200 | 22 ± 5.4 | 13.4 ± 3.3 | O=C(NO)c1ccc(Cn2cc(-c3ccc(CN4CCOCC4)cc3)nn2)cc1 [Example 9, N-Hydroxy-4-[4-(4-morpholin-4-ylmethyl-phenyl)-[1,2,3]triazol-1-ylmethyl]-benzamide] | 2800 ± 360 | 1200 ± 220 | 900 ± 201 | + | GI50 (HT-29; [4]): 1.5 ± 0.65 µM; GI50 (A549; [5]): 5 ± 1.6 µM; GI50 (A549; [6]): 4.5 ± 2.33 µM
150 ± 50 | 760 ± 660 | 230 ± 120 | 90 ± 20 | 3500 ± 2600 | 100 ± 110 | 310 ± 60 | 79 ± 40 | 340 ± 33 | 190 ± 50 | 410 ± 160 | 280 ± 50 | 1030 | 9800 ± 4300 | 12.6 ± 7.6 | 3.5 ± 2.7 | O=C(/C=C/c1ccc(Cn2cc(-c3ccc(CN4CCCC4)cc3)nn2)cc1)NO [Example 16, N-Hydroxy-3-{4-[4-(4-pyrrolidin-1-ylmethyl-phenyl)-[1,2,3]triazol-1-ylmethyl]-phenyl}-acrylamide] | 11700 ± 1100 | 420 ± 150 | 250 ± 70 | + | EC50 (HL-60 (AML) cells): 2880 nM; GI50 (HT-29; [3]): 0.04 µM; GI50 (HT-29; [4]): 0.15 ± 0.13 µM; GI50 (A549; [5]): 1.7 ± 1 µM; GI50 (A549; [6]): 1.58 ± 1.1 µM

SMILES | GI50 (RPMI-8226) [nM] | GI50 (U-87-MG) [nM] | GI50 (Hela-S3) [nM] | GI50 (ACHN) [nM] | GI50 (MCF-7) [nM] | GI50 (HCT-116) [nM] | GI50 (Colo-205) [nM] | GI50 (DU-145) [nM] | GI50 (SH-SY-5Y) [nM] | GI50 (K562) [nM] | GI50 (Calu-6) [nM] | GI50 (A431) [nM] | GI50 (PANC-1) [nM] | GI50 (HCT-15) [nM] | GI50 (PC-3; [1]) [µM] | GI50 (PC-3; [2]) [µM] | GI50 (KHOS) [nM] | GI50 (Ca Ski) [nM] | GI50 (IMR-32) [nM] | P21 induction (P21) | other results
O=C(NO)c1ccc(Cn2cc(-c3ccc(CN4CCCC4)cc3)nn2)cc1 [Example 8, N-Hydroxy-4-[4-(4-pyrrolidin-1-ylmethyl-phenyl)-[1,2,3]triazol-1-ylmethyl]-benzamide] | 400 ± 300 | 500 ± 90 | 400 ± 90 | 300 ± 140 | 2600 ± 1260 | 100 ± 40 | 300 ± 50 | 200 ± 60 | 200 ± 80 | 300 ± 60 | 600 ± 330 | 500 ± 130 | 1300 | 19300 ± 3800 | 16.8 ± 8.8 | 4.1 ± 0.38 | 2400 ± 400 | 1100 ± 490 | 400 ± 90 | + | EC50 (HL-60 (AML) cells): 8240 nM; GI50 (HT-29; [3]): 0.2 µM; GI50 (HT-29; [4]): 1.3 ± 0.33 µM; GI50 (A549; [5]): 4.1 ± 0.6 µM; GI50 (A549; [6]): 3.1 ± 1.99 µM
